One data set has as its target T1, DAO (Homo sapiens, UniProt P19801).
T1 sequence (P19801 20-751): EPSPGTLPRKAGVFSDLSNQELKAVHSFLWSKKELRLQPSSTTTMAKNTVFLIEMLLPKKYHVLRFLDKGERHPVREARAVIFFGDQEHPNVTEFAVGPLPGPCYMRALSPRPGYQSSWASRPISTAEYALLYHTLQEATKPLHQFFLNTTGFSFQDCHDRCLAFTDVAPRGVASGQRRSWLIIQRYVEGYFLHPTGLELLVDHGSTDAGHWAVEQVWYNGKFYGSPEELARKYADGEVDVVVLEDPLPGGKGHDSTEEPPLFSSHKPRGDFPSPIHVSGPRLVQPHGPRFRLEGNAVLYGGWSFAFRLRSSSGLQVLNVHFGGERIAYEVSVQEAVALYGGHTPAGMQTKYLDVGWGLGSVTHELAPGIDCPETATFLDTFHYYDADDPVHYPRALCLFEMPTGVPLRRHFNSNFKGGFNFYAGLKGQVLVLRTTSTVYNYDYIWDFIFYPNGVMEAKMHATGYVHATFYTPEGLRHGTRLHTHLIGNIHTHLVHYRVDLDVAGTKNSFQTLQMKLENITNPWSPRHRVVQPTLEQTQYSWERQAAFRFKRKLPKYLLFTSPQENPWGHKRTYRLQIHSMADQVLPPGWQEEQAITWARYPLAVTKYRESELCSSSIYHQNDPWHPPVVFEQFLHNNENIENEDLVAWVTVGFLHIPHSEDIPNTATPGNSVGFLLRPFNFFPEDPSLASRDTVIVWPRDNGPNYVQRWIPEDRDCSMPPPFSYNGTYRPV
Description: Compound oxidation by DAO. Format: biochemical.

The next data set deals with Adrenergic β2 (Homo sapiens, UniProt P07550). Put plainly: Eurofins panel 204110. Format: binding.
A short description of data set [1]: Systemic exposure in rat at 1000 mg/kg/day. Format: in vivo. The settings on record: daily for 1 week.
A further data set deals with Endothelin ETA (Homo sapiens, UniProt P25101). Put plainly: Eurofins panel 224010. It counts as binding.
The target of the next data set is Opiate δ1 (OP1, DOP) (Homo sapiens, UniProt P41143). Put plainly: Eurofins panel 260130. It counts as binding.
Another data set deals with Dopamine D2S (Homo sapiens, UniProt P14416). Description: Eurofins panel 219700. It counts as binding.
The test system of data set [2] is Calcium Channel L-Type, Dihydropyridine. Description: Eurofins panel 214600. Format: binding, rat.
A further data set concerns the target Adrenergic β1 (Homo sapiens, UniProt P08588). Put plainly: Eurofins panel 204010. Format: binding.
Data set [3] deals with full-thickness excision injury scar. Put plainly: Murine excision injury model. It counts as in vivo, C57BL6/J mice. The source says:
Having established promising in vivo anti-fibrotic efficacy, we next evaluated a full-thickness excision injury model in mice. Full-thickness excision injuries of approximately 1.1 cm^2 (approximately 2% body surface area) of dorsal skin were created under anesthesia. From Day 2 post-injury, animals received daily application of 0, 0.5, or 1.5% PXS-6302 oil in water cream for 28 days. At the end of the experiment, all animals were euthanised and scar tissue analyzed for collagen and cross-link content. […] Therefore, when applied after injury and during the healing phase, PXS-6302 reduced collagen crosslinking and total collagen deposition in the scar. Reassuringly, the efficacy of PXS-6302 was in line with earlier studies (performed with the first-generation inhibitor, PXS-4787, Supplementary Fig. S7) albeit with what appears to be a more comprehensive impact on crosslinking at a lower dose.
Cell pellets or isolated tissue samples were completely hydrolyzed in 1.5 mL 6 M hydrochloric acid for 24 h at 105 °C. After complete hydrolysis, samples were dried using a vacuum dryer and reconstituted using 200 µL MilliQ water. The sample clean-up was performed using solid-phase extraction method which uses C18 and SCX solid-phase extraction cartridges for sample purification. The samples were run on UPLC-MS-MS (Mass Spectrometer: Thermo Scientific TSQ Endura Triple quadrupole, UPLC: Thermo Scientific Dionex UltiMate 3000) using Agilent RRHD SB-C18,2.1x50mm,1.8um analytical column and solvent A: 10 mM ammonium formate, 0.1% formic acid, 0.1% HFBA in H2O and solvent B: 10 mM ammonium formate, 0.1% formic acid, 0.1% HFBA in MeOH and analyzed as previously described. Limits of detection are listed in Supplementary Table S4.
Nine-week-old C57BL6/J female mice (n = 8 per group) received a full-thickness excision injury of 1.1 cm^2 on dorsal area using a circular 12-mm biopsy punch (Acu-Punch, Badand Medical, P1250) (approximately 2% body surface area) under anesthesia. All animals received intramuscular injection of buprenorphine (0.1 mg/kg) as an analgesia. Paracetamol (1 mg/ml) was provided for 5 days post-injury in drinking water. Animals were allowed to recover for 24 h post-injury. Animals in the treatment group received twice a day application of 3% PXS-4787 cream for 28 days. For PXS-6302, once per day application of 1.5% concentration cream was used. At the end of the experiment, all animals were euthanised using an intraperitoneal injection of pentobarbitone (160 mg Kg-1) under Isoflurane anesthesia, and scar tissues were removed. The scar skin was fixed in 4% paraformaldehyde overnight at 4 °C. After fixation, tissues were washed in sterile PBS at room temperature. Samples were processed in Leica ASP300S Tissue Processor followed by embedding in paraffin blocks using tissue processor (Leica EG1150 modular tissue embedding center). The paraffin blocks were sectioned at 5 µm thickness using a wax microtome (fully automated Leica RM2255). For standard histology, the skin sections were stained with hematoxylin and eosin stain and Masson’s Trichrome stain. The stained sections were used to determine the collagen fiber orientation in the control and treatment specimens. All stained skin tissue sections were processed for whole slide imaging using a ScanScopeXT (Aperio Technologies, USA) at 20-x magnification. The digital images were collected and analyzed using ImageScope software (Aperio Techologies, Inc, USA). A piece of excised mouse scar tissue was processed for the collagen crosslinks extraction. The scar skin was weighed and homogenized in 900 µL PBS (FastPrep-24TM5G(MP) homogenizer). The tissue homogenate equivalent to 10 mg tissue was transferred to heat/acid resistant screw cap tube (VWR 16466-060) and the total volume of 870 µL was adjusted with PBS. The tissue homogenate was reduced with a Sodium borohydride buffer and processed for cross-link extraction protocol as mentioned in previous section.

For data set [4], the target named is Serotonin (5-Hydroxytryptamine) 5-HT2B (Homo sapiens, UniProt P41595). Description: Eurofins panel 271700. It counts as binding.
For another data set, the target named is Muscarinic M2 (Homo sapiens, UniProt P08172). Description: Eurofins panel 252710. It counts as binding.
[5] abbreviates: 3% PXS-4787, individual samples.
The mark [6] stands for this setting: 0.5 or […] cream daily for 28 days.

“And” between values parts separate entries of the source, which are not always exact repeats. Equal entries are not always repeated.

Sequence of Endothelin ETA (P25101 21-427): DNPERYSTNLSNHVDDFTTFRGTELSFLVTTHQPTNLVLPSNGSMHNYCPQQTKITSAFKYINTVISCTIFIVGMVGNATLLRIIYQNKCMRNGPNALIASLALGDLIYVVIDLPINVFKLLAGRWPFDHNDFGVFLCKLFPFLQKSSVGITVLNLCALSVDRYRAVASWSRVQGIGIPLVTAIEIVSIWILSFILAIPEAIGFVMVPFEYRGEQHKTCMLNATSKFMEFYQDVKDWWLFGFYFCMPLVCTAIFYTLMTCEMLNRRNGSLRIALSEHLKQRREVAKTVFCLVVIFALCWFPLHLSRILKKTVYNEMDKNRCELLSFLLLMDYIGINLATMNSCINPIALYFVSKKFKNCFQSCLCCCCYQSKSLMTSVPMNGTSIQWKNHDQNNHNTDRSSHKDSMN
Sequence of Muscarinic M2 (P08172 whole entry): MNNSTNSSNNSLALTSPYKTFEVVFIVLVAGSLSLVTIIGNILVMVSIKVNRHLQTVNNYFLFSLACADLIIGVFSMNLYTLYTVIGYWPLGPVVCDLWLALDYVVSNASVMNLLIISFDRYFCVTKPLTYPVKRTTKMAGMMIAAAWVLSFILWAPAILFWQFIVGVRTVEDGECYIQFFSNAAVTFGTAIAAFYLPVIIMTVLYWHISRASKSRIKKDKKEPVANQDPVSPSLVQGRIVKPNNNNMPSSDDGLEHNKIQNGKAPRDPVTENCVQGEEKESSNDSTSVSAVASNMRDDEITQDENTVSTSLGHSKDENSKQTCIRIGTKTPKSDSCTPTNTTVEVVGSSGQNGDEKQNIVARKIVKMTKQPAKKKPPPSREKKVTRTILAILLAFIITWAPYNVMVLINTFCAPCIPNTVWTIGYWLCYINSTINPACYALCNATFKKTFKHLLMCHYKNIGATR
Sequence of Adrenergic β1 (P08588 whole entry): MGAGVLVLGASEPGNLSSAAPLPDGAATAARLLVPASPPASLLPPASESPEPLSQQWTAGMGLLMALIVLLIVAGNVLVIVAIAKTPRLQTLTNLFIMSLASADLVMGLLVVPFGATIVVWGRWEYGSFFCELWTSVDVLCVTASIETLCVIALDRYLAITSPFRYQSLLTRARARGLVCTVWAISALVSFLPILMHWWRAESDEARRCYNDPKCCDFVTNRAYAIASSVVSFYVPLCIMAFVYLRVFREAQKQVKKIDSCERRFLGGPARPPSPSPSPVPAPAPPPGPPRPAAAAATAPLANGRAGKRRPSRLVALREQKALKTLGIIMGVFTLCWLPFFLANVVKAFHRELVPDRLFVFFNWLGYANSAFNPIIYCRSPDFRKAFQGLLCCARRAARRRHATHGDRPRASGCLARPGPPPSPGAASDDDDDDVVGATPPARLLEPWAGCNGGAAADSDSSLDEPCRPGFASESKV
Sequence of Serotonin (5-Hydroxytryptamine) 5-HT2B (P41595 whole entry): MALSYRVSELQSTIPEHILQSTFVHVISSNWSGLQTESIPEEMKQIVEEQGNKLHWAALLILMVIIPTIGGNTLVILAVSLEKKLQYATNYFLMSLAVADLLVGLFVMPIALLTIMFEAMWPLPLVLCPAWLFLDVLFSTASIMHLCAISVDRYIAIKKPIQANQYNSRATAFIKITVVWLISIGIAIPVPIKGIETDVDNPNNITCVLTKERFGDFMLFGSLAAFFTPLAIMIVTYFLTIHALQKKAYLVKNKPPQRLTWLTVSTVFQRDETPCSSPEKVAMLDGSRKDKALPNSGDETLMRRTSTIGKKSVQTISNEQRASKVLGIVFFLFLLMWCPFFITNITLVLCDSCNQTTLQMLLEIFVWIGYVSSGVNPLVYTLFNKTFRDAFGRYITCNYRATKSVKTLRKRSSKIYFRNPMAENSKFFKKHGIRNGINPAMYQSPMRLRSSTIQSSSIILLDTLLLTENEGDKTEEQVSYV
Sequence of Dopamine D2S (P14416 1-414 isoform P14416-2): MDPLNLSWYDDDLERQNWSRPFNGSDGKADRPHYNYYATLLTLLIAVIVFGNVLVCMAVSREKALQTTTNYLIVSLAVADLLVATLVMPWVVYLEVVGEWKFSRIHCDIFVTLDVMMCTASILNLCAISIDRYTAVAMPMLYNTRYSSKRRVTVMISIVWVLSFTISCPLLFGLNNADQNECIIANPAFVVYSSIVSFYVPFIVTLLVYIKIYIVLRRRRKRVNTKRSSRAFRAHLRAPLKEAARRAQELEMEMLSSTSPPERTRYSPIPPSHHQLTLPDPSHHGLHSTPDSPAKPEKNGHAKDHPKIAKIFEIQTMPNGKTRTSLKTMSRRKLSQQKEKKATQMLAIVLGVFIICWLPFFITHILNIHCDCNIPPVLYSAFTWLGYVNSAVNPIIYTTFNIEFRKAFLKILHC
Sequence of Adrenergic β2 (P07550 whole entry): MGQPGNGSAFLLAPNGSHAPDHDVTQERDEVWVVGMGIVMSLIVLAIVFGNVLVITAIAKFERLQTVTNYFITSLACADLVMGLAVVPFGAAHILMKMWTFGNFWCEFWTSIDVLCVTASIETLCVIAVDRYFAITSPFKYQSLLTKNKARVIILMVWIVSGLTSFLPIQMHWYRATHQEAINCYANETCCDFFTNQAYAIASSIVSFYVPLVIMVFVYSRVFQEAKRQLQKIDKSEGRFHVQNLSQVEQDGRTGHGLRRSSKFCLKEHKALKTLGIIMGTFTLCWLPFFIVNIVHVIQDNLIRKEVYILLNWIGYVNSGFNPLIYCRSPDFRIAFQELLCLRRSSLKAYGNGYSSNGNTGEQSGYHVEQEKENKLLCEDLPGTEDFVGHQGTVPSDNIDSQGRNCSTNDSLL
Sequence of Opiate δ1 (OP1, DOP) (P41143 whole entry): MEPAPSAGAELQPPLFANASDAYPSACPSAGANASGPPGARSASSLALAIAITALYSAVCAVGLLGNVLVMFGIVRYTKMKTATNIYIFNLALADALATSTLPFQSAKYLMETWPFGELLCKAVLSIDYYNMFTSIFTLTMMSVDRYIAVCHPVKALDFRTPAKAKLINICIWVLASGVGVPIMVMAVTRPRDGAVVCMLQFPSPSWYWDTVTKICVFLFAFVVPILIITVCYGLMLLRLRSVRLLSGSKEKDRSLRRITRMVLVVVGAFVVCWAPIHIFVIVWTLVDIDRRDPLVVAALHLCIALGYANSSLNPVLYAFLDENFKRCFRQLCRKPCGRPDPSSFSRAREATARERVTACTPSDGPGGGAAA

For `N#CCCN` [BAPN, β-aminoproprionitrile, reference compound], the “DAO specificity (Fig 2G), oxidation, individual experiments” value is 3.03 and 4.57 and 4.19 and 2.62 and 3.96 on DAO (30); 5.81 and 3.22 and 2.98 and 4.96 at DAO (60); 9.3 and 4.42 and 7.32 at DAO (90).

Take `NC/C=C(\F)CS(=O)(=O)c1ccccc1` [PXS-4787]: the inhibition at 10 µM on Adrenergic β2 (10 µM) was 10%; on Endothelin ETA (10 µM) it was 4%; against Opiate δ1 (OP1, DOP) (10 µM), 5%; on Dopamine D2S (10 µM), 13%; against Adrenergic β1 (10 µM), -3%; in data set [4] (10 µM), 21%. Further, the inhibition at 10 µM against Muscarinic M2 (10 µM) was found to be 7%. Moreover, the systemic levels result in data set [1] is listed as “negligible”. The “% Inh.” value in data set [2] (10 µM) is reported as -4%. Further, the DLHNL in [3] (setting [5]) is 32.598 pmol/mg tissue and 48.992 pmol/mg tissue and 38.94 pmol/mg tissue and 30.0045 pmol/mg tissue and 38.524 pmol/mg tissue and 51.535 pmol/mg tissue and 45.099 pmol/mg tissue and 36.456 pmol/mg tissue and 45.26 pmol/mg tissue. Moreover, in data set [3] (setting [5]), the DPD is 0.2026 pmol/mg tissue and 0.9604 pmol/mg tissue and 0.9521 pmol/mg tissue and 0.3416 pmol/mg tissue and 0.3259 pmol/mg tissue and 0.4694 pmol/mg tissue and 0.5793 pmol/mg tissue and 0.3046 pmol/mg tissue. In addition, the HLNL in data set [3] (setting [5]) was 11.709 pmol/mg tissue and 8.873 pmol/mg tissue and 7.946 pmol/mg tissue and 7.092 pmol/mg tissue and 8.4919 pmol/mg tissue and 8.338 pmol/mg tissue and 7.8195 pmol/mg tissue and 7.455 pmol/mg tissue. Further, the HYP in [3] (setting [5]) is 8529.4 pmol/mg tissue and 13422.8 pmol/mg tissue and 10345 pmol/mg tissue and 7129.2 pmol/mg tissue and 10620.5 pmol/mg tissue and 15497 pmol/mg tissue and 11840.8 pmol/mg tissue and 10529.6 pmol/mg tissue and 12893.7 pmol/mg tissue. For the same compound, the PYD in [3] (setting [5]) is 3.941 pmol/mg tissue and 2.065 pmol/mg tissue and 3.401 pmol/mg tissue and 3.561 pmol/mg tissue and 3.481 pmol/mg tissue and 3.75 pmol/mg tissue and 2.469 pmol/mg tissue and 2.034 pmol/mg tissue. Moreover, the “collagen cross-links formation in mouse scar” value in data set [3] (3% cream for 28 days) is listed as “Reduced”.

As for `NC/C=C(\F)C(F)(F)S(=O)(=O)c1ccccc1` [PXS-6302], the inhibition at 30 µM at Adrenergic β2 (read-out: % Inh.) worked out at 17%; at Endothelin ETA (read-out: % Inh.), 7%; on Opiate δ1 (OP1, DOP) (read-out: % Inh.), 26%; at Dopamine D2S (read-out: % Inh.), 13%; on Adrenergic β1 (read-out: % Inh.), 4%; in data set [4] (read-out: % Inh.), 63%. In addition, the inhibition at 30 µM on Muscarinic M2 (read-out: % Inh.) was found to be 16%. The systemic levels result in [1] is recorded as “negligible”. In addition, the “DAO specificity (Fig 2G), oxidation, individual experiments” value is 1.03 and 0.98 and 1 and 1.08 and 0.97 and 0.99 and 1.04 and 1.01 and 1.07 and 0.91 on DAO (30); 1.17 and 1.11 and 1.01 on DAO (60); 1.87 and 1.39 and 1.55 at DAO (90). Also, the “% Inh.” value in [2] (30 µM) is 2%. Also, the DHLNL in [3] (0.5%, individual animals) was 67.3445 pmol/mg protein and 104.493 pmol/mg protein and 49.564 pmol/mg protein and 93.5833 pmol/mg protein and 114.502 pmol/mg protein and 104.151 pmol/mg protein and 87.6663 pmol/mg protein and 102.971 pmol/mg protein. Also, the DPD in data set [3] (0.5%, individual animals) is 0.09524 pmol/mg protein and 0.2563 pmol/mg protein and 0.2515 pmol/mg protein and 0.4184 pmol/mg protein and 0.4492 pmol/mg protein and 0.4037 pmol/mg protein and 0.2113 pmol/mg protein and 0.2885 pmol/mg protein. For the same compound, the HLNL in [3] (0.5%, individual animals) was 0.7003 pmol/mg protein and 0.9861 pmol/mg protein and 0.7921 pmol/mg protein and 1.215 pmol/mg protein and 1.527 pmol/mg protein and 1.179 pmol/mg protein and 1.122 pmol/mg protein and 0.9282 pmol/mg protein. In data set [3] (0.5%, individual animals), the HYP is 135437 pmol/mg protein and 169286 pmol/mg protein and 127310 pmol/mg protein and 207537 pmol/mg protein and 183083 pmol/mg protein and 195703 pmol/mg protein and 151852 pmol/mg protein and 169426 pmol/mg protein. For the same compound, in data set [3] (0.5%, individual animals), the PYD was 1.932 pmol/mg protein and 5.635 pmol/mg protein and 3.784 pmol/mg protein and 5.7092 pmol/mg protein and 5.347 pmol/mg protein and 5.273 pmol/mg protein and 4.615 pmol/mg protein and 4.89 pmol/mg protein. For the same compound, the “hydroxyproline concentration in scar” value in [3] (setting [6]) is “dose-dependent reduction”. For the same compound, the “mature and immature crosslinks in scar” value in data set [3] (setting [6]) is on record as “dose-dependently diminished”.

The values are drawn from paper PMC9500072, “Topical application of an irreversible small molecule inhibitor of lysyl oxidases ameliorates skin scarring and fibrosis” (Nature Communications, 2022).
